Measured values as given in PubChem BioAssay (NCI).
Values joined by “and” are separate entries in the source; they are usually repeats but may differ in a detail not shown here. Equal entries are not always repeated.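 How tested: cells in 96-well plates exposed to compound for 48 hours at five concentrations. GI50 = concentration required for 50% inhibition of growth. TGI: total growth inhibition.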

Tests used:
Test in all cases: NCI anticancer screen, dose series, 48 h
[1] = tested on: NCI-H23 lung
[2] = tested on: HOP-92 NSCLC
[3] = tested on: MDA-MB-231 breast
[4] = tested on: KM12 colon
[5] = tested on: BT-549 breast
[6] = tested on: MOLT-4 leukemia
[7] = tested on: EKVX NSCLC
[8] = tested on: IGROV1 ovarian

Structure (SMILES)	GI50 [1]	TGI [1] [µM]	GI50 [2] [µM]	TGI [2]	GI50 [3]	TGI [3]	GI50 [4]	TGI [4]	GI50 [5] [µM]	TGI [5] [µM]	GI50 [6] [µM]	TGI [6]	GI50 [7]	TGI [7] [µM]	GI50 [8]	TGI [8] [µM]
COC(=O)c1ccc2c(c1)nc(-c1ccc(Cl)cc1)n2-c1cc(C(C)(C)C)[nH]n1	3.42 µM	36	1.15	8.02 µM	4.62 µM	27 µM	2.12 µM	6.07 µM	3.35	11.5	5.48	> 100 µM	3.06 µM	> 100	3.64 µM	25
COc1ccccc1Nc1nc(-c2cc3cccc(C(F)(F)F)c3oc2=O)cs1	0.345 µM	> 45.9	0.112	33.1 µM	0.516 µM	> 55.9 µM	0.0723 µM	22.3 µM	0.26	–	0.5	> 100 µM	0.164 µM	> 100	0.257 µM	> 53
Cn1c(=O)c(F)c(Nc2ccc(I)cc2F)c2c(=O)n(C[C@@H](O)CO)cnc21	0.0183 µM and 0.0231 µM	> 46.4	< 0.01	0.087 µM and 0.179 µM	0.0442 µM and 0.0456 µM	8.98 µM and > 1.99 µM	0.0237 µM and 0.0319 µM	39.1 µM and > 4.11 µM	12.6	> 95.8	18.4	45.1 µM and > 4.74 µM	0.042 µM and 0.0485 µM	> 64.1	0.106 µM and 0.0179 µM	20.8
COc1ccc(C(=O)Nc2cccc(C3CC(=O)c4c(cc(OC)c(OC)c4OC)O3)c2)cc1 (centres undefined)	2.63 µM	> 100	1.66	8.31 µM	2.06 µM	> 100 µM	1.08 µM	14.7 µM	1.01	7.81	1.02	5.18 µM	3.12 µM	> 100	2.41 µM	> 100
CNCCNc1nc2ccccc2c2c(=O)c3cccc(OC)c3sc12	1.48 µM	3	1.13	3.77 µM	1.3 µM	2.78 µM	1.62 µM	3.11 µM	1.7	3.65	0.427	1.63 µM	1.56 µM	3.05	1 µM	2.44
COc1ccc(/C=C(/C(=O)N2CCNCC2)c2cc(OC)c(OC)c(OC)c2)cc1O	5.16 µM	> 100	23.5	> 100 µM	4.41 µM	> 100 µM	3.18 µM	> 100 µM	4.22	48.4	3.94	> 100 µM	6.43 µM	> 100	6.73 µM	> 100
CN(C)CCn1cc(-c2ccc3c(Nc4ccc(CC(=O)Nc5cccc(F)c5)cc4)ncnc3c2)cn1	1.87 µM	4.98	6.27	> 10 µM	1.55 µM	3.35 µM	0.393 µM	1.97 µM	4.78	> 10	2.51	> 10 µM	5.89 µM	> 10	2.01 µM	6.41
N#C/C(=C/N1CCN(C(=O)c2ccco2)C1=S)C(N)=O	21.4 µM	44	25.5	> 100 µM	13.1 µM	37 µM	7.51 µM	98.2 µM	22.5	55.9	39.8	> 100 µM	0.342 µM	0.982	24 µM	86.8
Cc1ccc(Cl)cc1Nc1nc(C(F)(F)F)ccc1C(=O)Oc1ccc(Cl)cc1	11.7 µM	27.8	1.92	14.8 µM	4.53 µM	20.6 µM	21.6 µM	63.6 µM	15.6	36.3	7.99	24.3 µM	7.26 µM	22.8	11.1 µM	> 100
Cc1ccccc1NC(=O)NC(CC(N)=O)c1ccc2c(c1)nc(-c1cccc(Oc3ccc(C(C)(C)C)cc3)c1)n2CCCN1CCCCC1C (centres undefined)	4.89 µM	9.91	1.94	7.33 µM	2.34 µM	5.27 µM	2.34 µM	5.63 µM	13.3	26.1	3.39	9.65 µM	5.37 µM	11.5	3.25 µM	9.82
O=c1c2ccccc2nc(-c2ccc(Cl)cc2)n1O	–	> 100	–	88.8 µM	–	> 100 µM	–	> 100 µM	–	> 100	–	> 100 µM	–	77.9	–	9.61
O=Cc1ccc(C(F)(F)F)cc1.[C-]#[O+].[C-]#[O+].[C-]#[O+].[Cr]	37.1 µM	> 100	24.8	> 100 µM	25 µM	> 100 µM	24.6 µM	91.5 µM	40.1	> 100	15.4	68 µM	16.3 µM	45	18.7 µM	> 100
CC(C)[C@]12O[C@H]1[C@@H]1O[C@]13[C@]1(O[C@H]1C[C@H]1c4c(C(=O)c5ccccc5)oc(OC(=O)c5ccccc5)c4CC[C@@]13C)[C@@H]2O	< 0.0105 µM	0.111	0.0649	–	0.0463 µM	43.7 µM	0.226 µM	3.78 µM	0.0188	0.0951	0.0236	> 31.6 µM	0.0359 µM	1.11	0.028 µM	9.74
CC1=C(C)C(=O)C(C(C)C2=C(C)C(=O)C(C)=C(C)C2=O)=C(C)C1=O	21.6 µM	> 100	13.8	39.7 µM	13.8 µM	30.4 µM	40 µM	> 100 µM	45.1	> 100	8.88	27.6 µM	32.6 µM	> 100	48.9 µM	> 100
C[n+]1c2ccccc2c(NC2CCNCC2)c2[nH]c3ccccc3c21	0.0944 µM	0.88	1.15	6.86 µM	0.762 µM	7.19 µM	0.718 µM	5.77 µM	2.13	13.3	0.114	–	0.391 µM	5.39	0.363 µM	5.05
